Source: patent US4406902A, “Dipeptidase inhibitors” (Merck & Co., Inc., priority 1981, dated 1983)

Assays:
[1] = molecular target: T1, renal dipeptidase (E.C.3.4.13.11) (Sus scrofa, UniProt P22412); assay: in vitro screen: inhibition of hydrolysis of glycyldehydrophenylalanine (GDP) by solubilized dipeptidase from hog kidneys; assay type: biochemical; conditions: GDP 0.05 mM; pH 7.1; 37° C.; hog kidney dipeptidase; read-out: inhibitor binding constant, Ki (ki)
T1 construct: solubilized preparation of dipeptidase isolated from hog kidneys; from tissue; host or cells: hog kidney (solubilized, lyophilized enzyme preparation)
T1 sequence (P22412 17-409): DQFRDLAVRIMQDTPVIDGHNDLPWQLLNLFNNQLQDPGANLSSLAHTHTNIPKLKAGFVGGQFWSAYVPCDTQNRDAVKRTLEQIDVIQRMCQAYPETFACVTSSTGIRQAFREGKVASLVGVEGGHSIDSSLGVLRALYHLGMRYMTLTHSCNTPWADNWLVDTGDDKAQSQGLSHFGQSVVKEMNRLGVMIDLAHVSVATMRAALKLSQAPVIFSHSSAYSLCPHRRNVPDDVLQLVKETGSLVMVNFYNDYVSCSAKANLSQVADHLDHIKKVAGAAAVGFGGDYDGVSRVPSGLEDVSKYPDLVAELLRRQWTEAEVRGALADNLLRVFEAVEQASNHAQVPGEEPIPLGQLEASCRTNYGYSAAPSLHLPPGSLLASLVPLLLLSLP
Protocol: This measured the ability of compounds to inhibit hydrolysis of glycyldehydrophenylalanine (GDP) by a solubilized preparation of dipeptidase isolated from hog kidneys. The procedure is as follows: to a 1 ml. system containing 50 mM "MOPS" (3-(N-morpholino)propanesulfonic acid) buffer, pH 7.1, is added 5 μg of lyophilized enzyme, and the test compound at a final concentration of 0.1 mM. After a five minute incubation at 37° C., GDP is added to a final concentration of 0.05 mM. […] Inhibition of the enzyme is gauged by comparison to a standard run containing no inhibitor and is expressed as the inhibitor binding constant, Ki.

renal dipeptidase = molecular target: T2, renal dipeptidase (Sus scrofa, UniProt P22412); assay: hydrolysis of GDP and thienamycin as substrates by renal dipeptidase; assay type: biochemical, hog; conditions: GDP compared with thienamycin
T2 construct: GPI-anchored homodimer
T2 sequence (P22412 17-384): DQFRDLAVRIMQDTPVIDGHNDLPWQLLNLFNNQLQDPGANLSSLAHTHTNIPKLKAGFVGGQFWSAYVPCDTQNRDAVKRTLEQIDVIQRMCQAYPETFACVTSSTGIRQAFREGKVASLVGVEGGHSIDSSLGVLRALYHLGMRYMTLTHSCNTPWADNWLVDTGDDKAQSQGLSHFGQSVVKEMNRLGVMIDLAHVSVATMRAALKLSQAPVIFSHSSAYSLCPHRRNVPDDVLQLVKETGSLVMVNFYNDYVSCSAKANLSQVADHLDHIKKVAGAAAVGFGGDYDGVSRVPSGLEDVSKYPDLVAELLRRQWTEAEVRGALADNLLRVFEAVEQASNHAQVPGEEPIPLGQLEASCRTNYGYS

[2] = disposition studies with thienamycin, its natural analogs and semi-synthetic derivatives (urinary recovery, plasma half-life); assay type: in vivo; conditions: mouse, rat, dog, chimpanzee, Rhesus monkey
Protocol: Chem., 205 65 (1932); see also Greenstein, J. P., Advances in Enzymology, Vol. VIII, Wiley-Interscience, (1948), New York, and Campbell, B. J.; Lin, Y-C., Davis, R. V. and Ballew, E., "The Purification and Properties of Particulate Renal Dipeptidase", Biochim. Biophys. Acta., 118, 371 (1966).
Urinary recovery of thienamycin was measured in all cases with the use of a cylinder or disc diffusion assay, conducted in a manner described in U.S. Pat. No. 3,950,357. This bioassay, with Staphylococcus aureus ATCC 6538 as the test organism, has a useful response range from 0.04 μg/ml to 3.0 μg/ml.

Row | Compound | Ki [1] | other results
1 | NCC(=O)NC(=Cc1ccccc1)C(=O)O [GDP, glycyldehydrophenylalanine] | – | maximal velocity of hydrolysis by renal dipeptidase (renal dipeptidase): much higher maximal velocity of hydrolysis
2 | C[C@@H](O)[C@H]1C(=O)N2C(C(=O)O)=C(SCCN)C[C@H]12 [thienamycin] | – | plasma half-life [2]: short plasma half-lives; urinary recovery [2]: low urinary recovery

Now from value to compound, other results behind:

Row | Ki [1] | Compound | other results
3 | 40 nM | CC1(C)CC1C(=O)N/C(=C\CCCCSc1ncccc1C(=O)O)C(=O)O (racemic) [Example 3, Racemic Z-7-(3-carboxy-2-pyridylthio)-2-(2,2-dimethylcyclopropanecarboxamido)-2-heptenoic acid] | –
4 | 20 nM | CC1(C)CC1C(=O)N/C(=C\CCCCSc1ncccc1O)C(=O)O (single isomer, unassigned; (+)) [Example 2, (+)-Z-2-(2,2-Dimethylcyclopropanecarboxamido)-7-(3-hydroxy-2-pyridylthio)-2-heptenoic acid] | –
5 | 250 nM | CC1(C)CC1C(=O)N/C(=C\CCCCSc1ccc(C(=O)O)cn1)C(=O)O (racemic) [Example 4, Racemic Z-7-(5-carboxy-2-pyridylthio)-2-(2,2-dimethylcyclopropanecarboxamido)-2-heptenoic acid] | –
